The record followed here is ChEMBL document CHEMBL3751820, “Synthesis and evaluation of bis-thiazole derivatives as new anticancer agents” (Eur J Med Chem, 2016).

Values after ≈ are worked out from the molar mass of the structure shown. Active and inactive are the calls of the source. No cut-off for these calls is given here.

The test system of experiment [1] is C6. Nature of the experiment: Antiproliferative activity against rat C6 cells assessed as inhibition of DNA synthesis after 24 hrs by BrdU incorporation based ELISA. The format is functional, cell-based. In general terms: Incorporation of labelled thymidine or its analogues reports DNA synthesis.
The target of experiment [2] is T1, Cholinesterase (Homo sapiens, UniProt P06276). Nature of the experiment: Inhibition of BuChE (unknown origin) using butyrylthiocholine iodide as substrate at 80 ug/ml by Ellman spectrophotometric method.
Experiment [3] deals with T1, Cholinesterase. Nature of the experiment: Inhibition of BuChE (unknown origin) using butyrylthiocholine iodide as substrate by Ellman spectrophotometric method. (Ellman's reagent forms a yellow product with free thiols.)
For experiment [4], the system named is A549. As to the kind of experiment: Antiproliferative activity against human A549 cells assessed as inhibition of DNA synthesis after 24 hrs by BrdU incorporation based ELISA. Type of experiment: functional, cell-based.
For a further experiment, the target named is Acetylcholinesterase (Electrophorus electricus, UniProt O42275). As to the kind of experiment: Inhibition of electric eel AChE using acetylthiocholine iodide as substrate at by Ellman spectrophotometric method.
Experiment [5] has as its system C6. Nature of the experiment: Cytotoxicity against rat C6 cells after 24 hrs by MTT assay. The format is functional, cell-based. To be noted: C6, 24 h. (In general: Formazan colour is commonly taken as a measure of viable cells.)
A short description of experiment [6]: Cytotoxicity against rat 5RP7 cells after 24 hrs by MTT assay. The format is functional, cell-based. To be noted: 5RP7, 24 h.
Experiment [7] has as its system A549. Nature of the experiment: Cytotoxicity against human A549 cells after 24 hrs by MTT assay. To be noted: A549, 24 h. Type of experiment: functional, cell-based.
Experiment [8] is described as follows: Cytotoxicity against mouse NIH/3T3 cells after 24 hrs by MTT assay. Type of experiment: cell-based. To be noted: NIH3T3, 24 h.
Experiment [9] relates to C6. Nature of the experiment: Selectivity index, ratio of IC50 for mouse NIH/3T3 cells to IC50 for rat C6 cells. The format is functional.
Experiment [10] relates to A549. As to the kind of experiment: Selectivity index, ratio of IC50 for mouse NIH/3T3 cells to IC50 for human A549 cells. Type of experiment: functional.

Sequence of Acetylcholinesterase (O42275 whole entry): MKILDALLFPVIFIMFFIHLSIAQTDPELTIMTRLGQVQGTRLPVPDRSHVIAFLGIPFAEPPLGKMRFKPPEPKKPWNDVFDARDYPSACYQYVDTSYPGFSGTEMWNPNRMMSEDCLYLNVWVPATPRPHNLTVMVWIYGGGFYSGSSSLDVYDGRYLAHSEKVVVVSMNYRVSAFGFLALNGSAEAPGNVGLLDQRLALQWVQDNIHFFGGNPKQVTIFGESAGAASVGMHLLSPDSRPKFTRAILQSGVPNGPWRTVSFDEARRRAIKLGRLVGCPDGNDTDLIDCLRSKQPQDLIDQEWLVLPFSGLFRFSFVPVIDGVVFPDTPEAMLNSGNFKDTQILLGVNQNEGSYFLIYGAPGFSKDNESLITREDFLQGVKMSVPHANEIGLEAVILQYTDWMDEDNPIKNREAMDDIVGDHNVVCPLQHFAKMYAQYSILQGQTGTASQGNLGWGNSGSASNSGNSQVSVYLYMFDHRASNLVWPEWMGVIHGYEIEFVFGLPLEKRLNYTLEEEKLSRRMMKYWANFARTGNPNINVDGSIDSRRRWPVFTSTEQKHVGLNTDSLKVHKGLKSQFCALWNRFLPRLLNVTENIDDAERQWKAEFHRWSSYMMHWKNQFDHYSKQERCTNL
T1 sequence (P06276 whole entry): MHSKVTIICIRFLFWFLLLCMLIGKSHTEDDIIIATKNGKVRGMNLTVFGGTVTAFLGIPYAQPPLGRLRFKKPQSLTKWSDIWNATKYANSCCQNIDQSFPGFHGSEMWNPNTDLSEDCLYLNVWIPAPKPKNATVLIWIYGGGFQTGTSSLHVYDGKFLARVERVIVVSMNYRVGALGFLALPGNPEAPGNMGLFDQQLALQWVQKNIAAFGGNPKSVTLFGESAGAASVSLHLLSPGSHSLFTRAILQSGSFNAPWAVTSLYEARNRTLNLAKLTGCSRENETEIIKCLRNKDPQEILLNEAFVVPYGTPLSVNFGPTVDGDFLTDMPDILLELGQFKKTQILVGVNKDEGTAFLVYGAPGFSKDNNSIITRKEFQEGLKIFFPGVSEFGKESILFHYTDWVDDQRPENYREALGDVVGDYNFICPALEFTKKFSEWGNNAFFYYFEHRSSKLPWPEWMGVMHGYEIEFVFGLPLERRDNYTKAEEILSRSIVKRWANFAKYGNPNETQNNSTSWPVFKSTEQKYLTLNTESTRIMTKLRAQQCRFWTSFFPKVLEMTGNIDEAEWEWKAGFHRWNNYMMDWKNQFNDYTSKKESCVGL

In the case of `COc1ccc(-c2csc(Nc3ccc(-c4ccc(Nc5nc(-c6ccc(OC)cc6)cs5)c(OC)c4)cc3OC)n2)cc1`, the result in the experiment with C6 [1] was inactive. On Cholinesterase [2], this compound came in with an inhibition of 74.5%. Also, the IC50 against Cholinesterase [3] is 107 µM; on Acetylcholinesterase, 12.4 µM; in the experiment with C6 [5], 28.7 µg/mL (≈ 46.1 µM); in experiment [6] it was 13.3 µg/mL (≈ 21.4 µM); in the experiment with A549 [7], 58.3 µg/mL (≈ 93.6 µM); in experiment [8], 98.3 µg/mL (≈ 158 µM). Moreover, the result with A549 [4] was Active.
On Cholinesterase [2], `COc1cc(-c2ccc(Nc3nc(-c4ccc(Cl)cc4)cs3)c(OC)c2)ccc1Nc1nc(-c2ccc(Cl)cc2)cs1` registered an inhibition of 39.1%. For the same compound, the IC50 at Cholinesterase [3] was greater than 127 µM; against Acetylcholinesterase it was 42.7 µM; with C6 [5], 147 µg/mL (≈ 232 µM); in [6] it was 207 µg/mL (≈ 327 µM); in the experiment on A549 [7] it was 105 µg/mL (≈ 166 µM); in [8] it was 112 µg/mL (≈ 177 µM).
Regarding `COc1cc(-c2ccc(Nc3nc(-c4ccc([N+](=O)[O-])cc4)cs3)c(OC)c2)ccc1Nc1nc(-c2ccc([N+](=O)[O-])cc2)cs1`, in the experiment on C6 [1], the outcome was inactive. This compound registered an inhibition against Cholinesterase [2] of 27.9%. Besides, the IC50 against Cholinesterase [3] is greater than 123 µM; against Acetylcholinesterase it was 15.9 µM; in the experiment on C6 [5], 33.3 µg/mL (≈ 51 µM); in experiment [6], 5.83 µg/mL (≈ 8.93 µM); with A549 [7] it was 82.3 µg/mL (≈ 126 µM); in [8], 147 µg/mL (≈ 225 µM). Further, in the experiment with A549 [4], the outcome was Active.
In the case of `O=C1c2c(O)ccc(O)c2C(=O)c2c(NCCNCCO)ccc(NCCNCCO)c21` [MITOXANTRONE], the 50% inhibitory concentration (IC50) was 0.73 µg/mL (≈ 1.64 µM) in experiment [6] and 15.7 µg/mL (≈ 35.3 µM) in the experiment with A549 [7].
At Cholinesterase [2], `COc1cc(-c2ccc(Nc3nc(-c4cc(Cl)ccc4Cl)cs3)c(OC)c2)ccc1Nc1nc(-c2cc(Cl)ccc2Cl)cs1` showed an inhibition of 36.2%. Moreover, the IC50 against Cholinesterase [3] is greater than 114 µM; on Acetylcholinesterase, 97.1 µM; with C6 [5], 38.3 µg/mL (≈ 54.7 µM); in [6] it was 54.3 µg/mL (≈ 77.6 µM); with A549 [7] it was 102 µg/mL (≈ 145 µM); in experiment [8] it was 162 µg/mL (≈ 231 µM).
As for `COc1cc(-c2ccc(Nc3nc(-c4ccc(Br)cc4)cs3)c(OC)c2)ccc1Nc1nc(-c2ccc(Br)cc2)cs1`, the result with C6 [1] was inactive. The inhibition result on Cholinesterase [2] was “inactive”. Besides, the “Ratio IC50” value in the experiment on C6 [9] came to 11.65; in the experiment on A549 [10] it was 3.53. Also, the outcome with A549 [4] was Active. Also, the 50% inhibitory concentration (IC50) was 15.9 µM against Acetylcholinesterase; 11.3 µg/mL (≈ 15.7 µM) in the experiment on C6 [5]; 68.3 µg/mL (≈ 94.8 µM) in [6]; 37.3 µg/mL (≈ 51.8 µM) with A549 [7]; 132 µg/mL (≈ 183 µM) in experiment [8].
Turning to `COc1cc(-c2ccc(Nc3nc(-c4ccc(Cl)c(Cl)c4)cs3)c(OC)c2)ccc1Nc1nc(-c2ccc(Cl)c(Cl)c2)cs1`, at Cholinesterase [2], the inhibition turned out to be 53.5%. Besides, the IC50 is 110 µM at Cholinesterase [3]; 16.3 µM on Acetylcholinesterase; 90 µg/mL (≈ 128 µM) in the experiment on C6 [5]; 207 µg/mL (≈ 295 µM) in experiment [6]; 147 µg/mL (≈ 209 µM) in the experiment on A549 [7]; greater than 200 µg/mL in experiment [8].
Regarding `COc1ccc(OC)c(-c2csc(Nc3ccc(-c4ccc(Nc5nc(-c6cc(OC)ccc6OC)cs5)c(OC)c4)cc3OC)n2)c1`, the inhibition at Cholinesterase [2] was 56.9%. Moreover, the IC50 against Cholinesterase [3] was 58 µM; against Acetylcholinesterase, 55.7 µM; with C6 [5], 103 µg/mL (≈ 151 µM); in [6] it was 12.3 µg/mL (≈ 18.1 µM); with A549 [7], 125 µg/mL (≈ 183 µM); in [8], 170 µg/mL (≈ 249 µM).
Regarding `COc1cc(-c2ccc(Nc3nc(-c4ccccc4)cs3)c(OC)c2)ccc1Nc1nc(-c2ccccc2)cs1`, the inhibition result at Cholinesterase [2] was “inactive”. Also, the IC50 at Acetylcholinesterase is 16.6 µM; in the experiment on C6 [5], 49.3 µg/mL (≈ 87.6 µM); in experiment [6], 28 µg/mL (≈ 49.8 µM); in the experiment on A549 [7], 103 µg/mL (≈ 184 µM); in experiment [8], 112 µg/mL (≈ 198 µM).
`COc1cc(-c2ccc(Nc3nc(-c4ccc(Cl)cc4Cl)cs3)c(OC)c2)ccc1Nc1nc(-c2ccc(Cl)cc2Cl)cs1` had an inhibition at Cholinesterase [2] of 84.4%. The IC50 against Cholinesterase [3] was 47.6 µM; on Acetylcholinesterase, 8.37 µM; in the experiment with C6 [5], 80 µg/mL (≈ 114 µM); in [6], greater than 500 µg/mL; in the experiment with A549 [7] it was 133 µg/mL (≈ 190 µM); in experiment [8] it was greater than 200 µg/mL.
Regarding `COc1cc(-c2ccc(Nc3nc(-c4ccc(C)cc4)cs3)c(OC)c2)ccc1Nc1nc(-c2ccc(C)cc2)cs1`, in the experiment on C6 [1], the outcome was inactive. In addition, the inhibition against Cholinesterase [2] amounted to 40.9%. The IC50 on Cholinesterase [3] is greater than 135 µM; against Acetylcholinesterase, 45.8 µM; with C6 [5], 21 µg/mL (≈ 35.5 µM); in [6] it was greater than 500 µg/mL; in the experiment with A549 [7], 98.3 µg/mL (≈ 166 µM); in experiment [8], 153 µg/mL (≈ 260 µM). Moreover, in the experiment on A549 [4], the result was Active.
Take `COc1cc(-c2ccc(NC(N)=S)c(OC)c2)ccc1NC(N)=S`: the inhibition on Cholinesterase [2] is 26.7%. In addition, the half-inhibitory concentration (IC50) on Cholinesterase [3] was greater than 221 µM; against Acetylcholinesterase it was 57.7 µM; in the experiment on C6 [5], 165 µg/mL (≈ 455 µM); in experiment [6], 25.3 µg/mL (≈ 69.9 µM); in the experiment with A549 [7] it was 178 µg/mL (≈ 492 µM); in experiment [8], 195 µg/mL (≈ 538 µM).

Broadly, the inhibition is the drop in the measured response relative to a control, in per cent. What is called IC50 is the concentration that gives 50% inhibition. Read a low IC50 as higher potency.
